Consider 16 compounds from patent publication US6673937B2, “Syntheses and methods of use of new antimitotic agents” (The University of Pittsburgh, priority 2000, dated 2004).

Read-outs that look alike come from different tables or passages of the source. A value given as a limit tells only on which side of the number the result lay.

One assay deals with MDA-MB-231 cells. The assay is described as follows: Antiproliferative assay, MDA-MB-231 cells. Format: cell-based, human. Conditions: 72 hours; for IC50: read-out: MDA-MB-231 50% cell growth inhibition; for sensitivity of MDA-MB-231 cells, in words: FIG. 23 Panel B. The source says:
MDA-MB-231 cells, which were also derived from an adenocarcinoma of the breast, are less differentiated than the MCF-7 cells and fail to express functional p53 or estrogen receptors. This class of tumor cells contains important targets for new therapies, because loss of estrogen receptor expression is associated with poor patient prognosis. (Osborne, C. K. Breast Cane. Res. Treatm. 1998, 51, 227).
The inventors extrapolated to determine the IC50 for compounds with little cytotoxicity at 30,μM, the highest concentration tested. […] The enhanced sensitivity of MCF-7 to these compounds may be due to the expression of p53 in these cells.
Two compounds, 24 referred to herein as SR-4 and 27 referred to herein as SR-7, were examined in greater detail as to their effects on biological activity. The proliferation of MCF-7, MDA-MB-231 and SV40 transformed mouse embryonic fibroblasts was measured by a previously described colorimetric assay (Wipf P, Jung J-K, Rodriguez S, Lazo JS Synthesis and biological evaluation of Deoxypreussomerin A and Palmarumycin CP 1 and related naphthoquinone spiroketals. Tetrahedron 57:283-296, 2001 and Vogt A, Rice RL, Settineri CE, Yokokawa F, Yokokawa S, Wipf P and Lazo JS (1998) Disruption of insulin-like growth factor-I signaling and down-regulation of Cdc2 by SC-ααδ9, a novel small molecule antisignaling agent identified in a targeted array library. J Pharmacol Exptl Therap 287:806-813.). Briefly, the inventors seeded 4,000-6,000 cells per well in microtiter plates. Cells were allowed to attach overnight and treated with vehicle or compounds for 72 h, after which the medium was replaced with serum free medium containing 0.1% 3-[4,5-dimethylthiazol-2-yl]-2,5-diphenyl tetrazolium bromide. Plates were incubated for 3 hours in the dark and total cell number was determined by spectrophotometrically at 540 nm as previously described (Vogt A, Rice RL, Settineri CE, Yokokawa F, Yokokawa S, Wipf P and Lazo JS (1998) Disruption of insulin-like growth factor-1 signaling and down-regulation of Cdc2 by SC-ααδ9, a novel small molecule antisignaling agent identified in a targeted array library. J Pharmacol Exptl Therap 287:806-813.). […] Cells were maintained in RPMI 1640 medium containing 10% fetal bovine serum and the paclitaxel-resistant cells also contained 17 nM paclitaxel and 10 μM verapamil. Cells were plated (2,000/well) in 96-well plates and allowed to attach and grow for 72 hours (paclitaxel and verapamil were removed from resistant cell medium two weeks prior to this plating). They were then treated with 0.5% DMSO vehicle control or 0.08-10 μM compound. The number of cells was determined spectrophotometrically at 490 nm minus absorbance at 630 nm after exposure to 3-(4,5-dimethylthiazol-2-yl)-5-(3-carboxymethoxyphenyl)-2-(4-sulfophenyl)-2H-tetrazolium and N-methyldibenzopyurazine methyl sulfate.
Because of the potential importance of the tumor suppressor gene p53 and the estrogen receptor in controlling the cellular response to cytotoxic agents, the inventors also examined the sensitivity of MDA-MB-231 cells, which lack functional p53 and estrogen receptors. […] As might be expected, these p53 and estrogen receptor deficient cells were generally less sensitive to both natural products and analogs when compared to MCF-7 cells.

The next assay concerns the target T1, Trx-1/TrxR (Homo sapiens, UniProt P10599+Q16881).
T1 construct: Thioredoxin reductase was purified from human placenta as previously described; made in house
T1 sequence (P10599 1-105): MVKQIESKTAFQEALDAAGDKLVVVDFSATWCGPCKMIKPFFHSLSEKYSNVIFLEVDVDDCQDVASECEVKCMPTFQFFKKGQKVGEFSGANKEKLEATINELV
T1 sequence (Q16881 1-499 isoform Q16881-5): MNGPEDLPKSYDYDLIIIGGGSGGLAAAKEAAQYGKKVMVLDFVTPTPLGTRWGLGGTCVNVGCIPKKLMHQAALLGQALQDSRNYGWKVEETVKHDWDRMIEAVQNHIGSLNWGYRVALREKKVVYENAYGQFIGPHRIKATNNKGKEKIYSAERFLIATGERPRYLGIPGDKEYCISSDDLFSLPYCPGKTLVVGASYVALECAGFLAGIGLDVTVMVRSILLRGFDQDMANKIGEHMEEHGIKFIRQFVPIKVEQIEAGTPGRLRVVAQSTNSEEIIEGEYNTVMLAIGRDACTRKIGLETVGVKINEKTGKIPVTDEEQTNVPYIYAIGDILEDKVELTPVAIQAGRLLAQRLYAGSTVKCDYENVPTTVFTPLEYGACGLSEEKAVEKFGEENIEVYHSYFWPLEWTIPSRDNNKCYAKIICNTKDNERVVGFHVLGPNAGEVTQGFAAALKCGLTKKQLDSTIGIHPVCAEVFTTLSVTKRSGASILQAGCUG
The assay can be described thus: Trx-1/TrxR-dependent insulin reducing assay. As to conditions: for IC50: calculated from 5 concentrations (0.1 to 50 μM). The class given is biochemical. The protocol: Thioredoxin reductase was purified from human placenta as previously described (Oblong, J.E.; Gasdaska, P.Y.; Sherrill, K.; Powis,G. Biochemistry 1993, 32, 7271) and recombinant human Trx-1 was prepared as previously described (Gasdaska, P.Y.; Oblong, J.E.; Cotgreave, I.A.; Powis,G. Biochem.Biophys.Acta 1994 ,1218 ,292). TrxR and Trx-1/TrxR activities were measured spectrophotometrically using previously published microtiter plate colorimetric assays, based on the increase in absorbance at 405 nm which occurs as dithionitrobenzoic acid (DTNB) is reduced by the enzyme-mediated transfer of reducing equivalents from NADPH (Gasdaska et al., Biochem.Biophys.Acta 1994 ,1218,292). Trx-1/TrxR-dependent insulin reducing activity was measured in an incubation with a final volume of 60 μL containing 100 mM HEPES buffer, pH 7.2,5 mM EDTA (HE buffer),1 mM NADPH, […],0.8 μM Trx-1 and 2.5 mg/mL bovine insulin. Incubations were for 30 min at 37 ° C. in flat-bottom 96-well microtiter plates. The reaction was stopped by the addition of 100 μL of 6 M guanidine-HC1, 50 mM Tris, pH 8.0, and 10 mM DTNB, and the absorbance measured to 405 nm. TrxR activity was measured in a final incubation volume of 60 μL containing HE buffer, 10 mM DTNB, 1.0 μM TrxR and 1 mM NADPH. Compounds were diluted in HE buffer and added to the wells as 20 μL aliquots, and TrxR was then added,also as 20 μL aliquots in HE buffer. To start the reaction NADPH and DTNB were added as a 20 μL aliquot in HE buffer and the plate was moved to the plate reader which had been preheated to 37 ° C. The optical density at 405 nm was measured every 10 s and initial reaction rates were measured.

As to `O=C1C=CC2(Oc3cccc4cccc(c34)O2)c2cccc(OC/C=C/c3ccccc3)c21` [SR-1, (E)-8-(3-phenyl-allyloxy)-1-oxo-1,4-dihydronaphthalene-4-spiro-2′-naphto[1″, 8″-de] [1′,3′] dioxin], the IC50 in the assay with MDA-MB-231 cells (Homo sapiens, MDA-MB-231) was 7.5 µM; at Trx-1/TrxR it was greater than 50 µM.

For `C/C=C/COc1cccc2c1C(=O)C=CC21Oc2cccc3cccc(c23)O1` [SR-2, (E)-8-(but-2-enyloxy)-1-oxo-1,4-dihydronaphthalene-4-spiro-2′-naphto [1″,8″-de][1′,3′]dioxin], the IC50 in the assay with MDA-MB-231 cells (Homo sapiens, MDA-MB-231) is 2.9 µM; on Trx-1/TrxR, greater than 50 µM.

For the compound `CCCCCCOc1cccc2c1C(=O)C=CC21Oc2cccc3cccc(c23)O1` [SR-3, 8-hexyloxy-1-oxo-1,4-dihydronaphthalene-4-spiro-2′-naphto [1″,8″-de] [1′,3′] dioxin], the IC50 with MDA-MB-231 cells (Homo sapiens, MDA-MB-231) is 13.6 µM; on Trx-1/TrxR it was greater than 50 µM.

For `COc1cccc(COc2cccc3c2C(=O)C=CC32Oc3cccc4cccc(c34)O2)c1` [SR-5, 8-(3-methoxy-benzyloxy)-1-oxo-1,4-dihydronaphthalene-4-spiro-2′-naphto [1″,8″-de][1′,3′] dioxin], the IC50 in the assay with MDA-MB-231 cells (Homo sapiens, MDA-MB-231) was 2.7 µM; at Trx-1/TrxR it was greater than 50 µM.

Turning to `O=C1C=CC2(Oc3cccc4cccc(c34)O2)c2cccc(OCCc3ccccc3)c21` [SR-6, 8-(2-phenyl-ethoxy)-1-oxo-1,4-dihydronaphthalene-4-spiro-2′-naphto [1″,8″-de][1′,3′] dioxin], the IC50 with MDA-MB-231 cells (Homo sapiens, MDA-MB-231) is 4.6 µM; at Trx-1/TrxR, greater than 50 µM.

As to `O=C1C=CC2(Oc3cccc4cccc(c34)O2)c2cccc(OCc3ccco3)c21` [SR-7, 8-(furan-2-ylmethoxy)-1-oxo-1,4-dihydronaphthalene-4-spiro-2′-naphto [1″,8″-de][1′,3′] dioxin], the “sensitivity of MDA-MB-231 cells, in words” value with MDA-MB-231 cells is “equally sensitive”. Besides, the IC50 in the assay on MDA-MB-231 cells (Homo sapiens, MDA-MB-231) was 2.5 µM; on Trx-1/TrxR, greater than 50 µM.

For the compound `CC(C)=CCC/C(C)=C/COc1cccc2c1C(=O)C=CC21Oc2cccc3cccc(c23)O1` [SR-9, (E,E)-8-(3,7-diemthyl-octa-2,6-dienyloxy)-1-oxo-1,4-dihydronaphthalene-4-spiro-2′-naphtol [1″,8″-de][1′,3′] dioxin], the IC50 is 2 µM in the assay with MDA-MB-231 cells (Homo sapiens, MDA-MB-231) and greater than 50 µM on Trx-1/TrxR.

As to `O=C1C=CC2(Oc3cccc4cccc(c34)O2)c2cccc(OCc3ccoc3)c21` [SR-10, 8-(furan-3-ylmethoxy)-1-oxo-1,4-dihydronaphthalene-4-spiro-2′-naphto [1′,8′-de][1′,3′] dioxin], the IC50 was 2 µM with MDA-MB-231 cells (Homo sapiens, MDA-MB-231) and 23.2 µM on Trx-1/TrxR.

As for `O=C1C=CC2(Oc3cccc4cccc(c34)O2)c2cccc(OCc3ccccn3)c21` [SR-11, 8-(pyridin-2-ylmethoxy)-1-oxo-1,4-dihydronaphthalene-4-spiro-2′-naphto [1″,8″-de][1′,3′] dioxin], the IC50 is 2.8 µM in the assay with MDA-MB-231 cells (Homo sapiens, MDA-MB-231) and 41.8 µM at Trx-1/TrxR.

Regarding `O=C1C=CC2(Oc3cccc4cccc(c34)O2)c2cccc(OCc3cccnc3)c21` [SR-12, 8-(pyridin-3-ylmethoxy)-1-oxo-1,4-dihydronaphthalene-4-spiro-2′-naphto [1″,8″-de][1′,3′] dioxin], the IC50 is 1.4 µM in the assay on MDA-MB-231 cells (Homo sapiens, MDA-MB-231) and greater than 50 µM at Trx-1/TrxR.

As to `O=C1C=CC2(Oc3cccc4cccc(c34)O2)c2cccc(OCc3ccncc3)c21` [SR-13, 8-(pyridin-4-ylmethoxy)-1-oxo-1,4-dihydronaphthalene-4-spiro-2′-naphtol [1″,8″-de][1′,3′] dioxin], the IC50 in the assay with MDA-MB-231 cells (Homo sapiens, MDA-MB-231) is 7.3 µM; on Trx-1/TrxR it was greater than 50 µM.

On to `C=CCOc1cccc2c1C(=O)C=CC21Oc2cccc3cccc(c23)O1` [SR-14, 8-allyloxy-1-oxo-1,4-dihydronaphthalene-4-spiro-2′-naphto [1″,8″-de][1′,3′] dioxin], for which the IC50 with MDA-MB-231 cells (Homo sapiens, MDA-MB-231) is 2.7 µM; at Trx-1/TrxR, 23.2 µM.

As for `COc1ccc(COc2cccc3c2C(=O)C=CC32Oc3cccc4cccc(c34)O2)cc1` [TH-39, 8-(4-methoxy-benzyloxy)-1-oxo-1,4-dihydronaphthalene4-spiro-2-naphto [1,8-de][1, 3]dioxin], the IC50 with MDA-MB-231 cells (Homo sapiens, MDA-MB-231) is 2.2 µM; at Trx-1/TrxR it was greater than 50 µM.

For the compound `O=C1C=CC2(OCCO2)c2cccc(O)c21` [TH-169], the IC50 in the assay with MDA-MB-231 cells (Homo sapiens, MDA-MB-231) came to 4.3 µM. At Trx-1/TrxR, the “Trx-1/TrxR inhibition, in words” value was “maintains significant activity”; the “fold less active than palmarumycin CP1 on Trx-1/TrxR” value is on record as “approximately 10 fold”; the “selectivity for Trx-1 over TrxR” value is “approximately 2 fold”; the IC50 is 3.4 µM.

Turning to `COc1cccc2c1C(=O)C=CC21OCCCO1` [TH-223], the IC50 in the assay on MDA-MB-231 cells is 5 µM; at Trx-1/TrxR, 40.2 µM. Besides, the “Trx-1/TrxR inhibition, in words” value on Trx-1/TrxR was “practically inactive”.

For the compound `O=C1C=CC2(Oc3cccc4cccc(c34)O2)c2cccc(O)c21` [palmarumycin CP1, 8-hydroxy-1-oxo-1,4-dihydronaphthalene-4-spiro-2′-naphtho[1″,8″-de] [1′,3′] dioxin, reference compound], in the assay with MDA-MB-231 cells, the “sensitivity of MDA-MB-231 cells, in words” value was “equally sensitive”. Further, the IC50 with MDA-MB-231 cells (Homo sapiens, MDA-MB-231) was found to be 2.4 µM. Further, on Trx-1/TrxR, the “selectivity for Trx-1 over TrxR” value was greater than 30 fold and the IC50 is 0.35 µM.
